Publication PMC12326988, “Synthetic host defense peptide inhibits SARS-CoV-2 replication in vitro” (Antimicrobial Agents and Chemotherapy, 2025)
≈ marks a conversion by molar mass, not a printed value. Square brackets hold non-standard residues; d marks the D form. Ends that are not written are not given here. Peptide text beside a SMILES is read from it.

Legend:
in vitro [1] = conditions: African green monkey
[2] = tested on: SARS-CoV-2 hCoV-19/New Zealand/NZ1_patient/2020; conditions: hCoV-19/New Zealand/NZ1 patient/2020, 72 h
[3] = tested on: SARS-CoV-2 hCoV-19/New Zealand/NZ1_patient/2020; conditions: hCoV-19/New Zealand/NZ1 patient/2020, 72 h; remark: listed apart in the source
[4] = target: binding between SARS-CoV-2 Wuhan RBD-Fc and hACE2-AP (UniProt P0DTC2+Q9BYF1); design: species or system SARS-CoV-2; human
binding between SARS-CoV-2 Wuhan RBD-Fc and hACE2-AP, sequence (Q9BYF1 18-740, one chain of several): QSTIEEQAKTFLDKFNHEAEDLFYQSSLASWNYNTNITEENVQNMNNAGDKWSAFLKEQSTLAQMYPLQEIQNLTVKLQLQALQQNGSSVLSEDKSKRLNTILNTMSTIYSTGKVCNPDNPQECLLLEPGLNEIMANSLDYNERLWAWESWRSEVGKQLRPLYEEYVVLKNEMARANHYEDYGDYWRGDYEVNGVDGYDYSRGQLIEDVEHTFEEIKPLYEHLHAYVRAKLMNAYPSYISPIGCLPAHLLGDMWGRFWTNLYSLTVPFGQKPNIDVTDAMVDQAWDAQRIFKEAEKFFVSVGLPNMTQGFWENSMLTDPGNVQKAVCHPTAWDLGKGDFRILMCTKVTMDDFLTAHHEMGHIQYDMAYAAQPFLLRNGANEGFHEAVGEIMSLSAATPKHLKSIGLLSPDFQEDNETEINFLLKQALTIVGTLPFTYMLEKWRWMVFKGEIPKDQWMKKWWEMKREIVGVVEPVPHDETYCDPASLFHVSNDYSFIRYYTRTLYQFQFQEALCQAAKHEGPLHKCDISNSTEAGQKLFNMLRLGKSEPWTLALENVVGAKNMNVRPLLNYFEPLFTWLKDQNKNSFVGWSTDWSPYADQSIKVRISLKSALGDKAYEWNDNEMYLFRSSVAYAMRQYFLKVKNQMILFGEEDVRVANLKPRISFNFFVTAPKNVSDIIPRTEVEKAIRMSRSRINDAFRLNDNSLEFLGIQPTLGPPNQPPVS

VSV-g-pseudotyped virus = type: cell-based; conditions: virus exposed to agent 1 h, then HEK293T-hACE2 cells
[5] = tested on: SARS-CoV-2 hCoV-19/New Zealand/NZ1_patient/2020; type: cell-based
[6] = tested on: binding of the SARS-CoV-2 RBD to its human ACE2 receptor; conditions: cited from earlier work
[7] = tested on: SARS-CoV-2 (Wuhan) spike-pseudotyped virus; conditions: for EC50, entry of pseudotyped virus: HEK293T-ACE2 cells incubated with agent prior to pseudotyped virus
ELVIRA Flu A cells = conditions: 50 µg/mL
in vitro [8] = conditions: African green monkey; human
SARS-CoV-2-Nluc = conditions: 72 h
MDCK cells = conditions: 50 µg/mL
[9] = tested on: authentic SARS-CoV-2 virions; conditions: 100 µg/mL, 1 h
[10] = tested on: SARS-CoV-2 γ spike-pseudotyped virus; type: cell-based; conditions: virus exposed to agent 1 h, then HEK293T-hACE2 cells

In the case of `CC[C@@H](C)[C@@H](NC(=O)[C@@H](C)NC(=O)[C@@H](CCCNC(=N)N)NC(=O)[C@@H](Cc1c[nH]c2ccccc12)NC(=O)[C@@H](CCC(N)=O)NC(=O)[C@H](N)C(C)C)C(=O)N[C@H](CCCNC(=N)N)C(=O)N[C@@H](C(=O)N[C@H](CCCNC(=N)N)C(=O)N[C@@H](C(=O)N[C@@H](C(=O)N[C@H](CCCNC(=N)N)C(N)=O)[C@H](C)CC)C(C)C)C(C)C` [DJK-5, vqwrairvrvir-NH2] (H-[dV][dQ][dW][dR][dA][dI][dR][dV][dR][dV][dI][dR]-NH2), the CC50 (in vitro [1]) is reported as 517 µg/mL, the “EC50 VeroE6/TMPRSS2” value [2] is reported as 29.31 µg/mL (≈ 18.9 µM) and the “EC50 Vero” value [3] is reported as 25.16 µg/mL (≈ 16.2 µM).

In the case of VRLIVAVRIWRR-NH2 [IDR-1018], the CC50 (in vitro [1]) is reported as 686 µg/mL, the “EC50 VeroE6/TMPRSS2” value [2] is reported as 28.72 µg/mL and the “EC50 Vero” value [3] is reported as 21.79 µg/mL.

In the case of shACE2, the “IC50, inhibition of hACE2-RBD binding” value [4] is reported as 6.6 µg/mL, the NT50 (VSV-g-pseudotyped virus) is reported as > 100 µg/mL and the “inhibition of SARS-CoV-2 replication” value [5] is reported as 72%.

In the case of LL-37, the “affinity, interference with binding of SARS-CoV-2 RBD to human ACE2” value [6] is given as 25.5 nM.

For HNP1, the “affinity, interference with binding of SARS-CoV-2 RBD to human ACE2” value [6] is listed as 160 nM.

With `CC[C@@H](C)[C@@H](N)C(=O)N[C@H](Cc1c[nH]c2ccccc12)C(=O)N[C@H](CC(C)C)C(=O)N[C@H](CCCNC(=N)N)C(=O)N[C@H](CC(C)C)C(=O)N[C@H](CCCCN)C(=O)N[C@@H](C(=O)N[C@@H](C(=O)N[C@H](CC(C)C)C(=O)N[C@H](CCCCN)C(=O)N[C@H](CCCNC(=N)N)C(=O)N[C@H](CCCCN)C(N)=O)C(C)C)C(C)C` [D-3006, iwlrlkvvlkrk-NH2] (H-[dI][dW][dL][dR][dL][dK][dV][dV][dL][dK][dR][dK]-NH2) the “EC50, entry of pseudotyped virus” value [7] was 5.84 µg/mL, the “cell viability” value (ELVIRA Flu A cells) was “did not affect the viability” and the CC50 (in vitro [1]) was 430 µg/mL. For the same compound, the CC50 at 48 h (in vitro [8]) was > 100 µg/mL, the “EC50 VeroE6/TMPRSS2” value [2] was 5.37 µg/mL (≈ 3.46 µM) and the EC50 (SARS-CoV-2-Nluc) was 5.4 µg/mL (≈ 3.48 µM). For the same compound, the “cell viability” value (MDCK cells) was “did not affect the viability” and the “EC50 Vero” value [3] was 1.57 µg/mL (≈ 1.01 µM).

For `CC[C@H](C)[C@H](NC(=O)CN)C(=O)NCC(=O)N[C@@H](C)C(=O)N[C@H](C(=O)N[C@@H](CC(C)C)C(=O)N[C@@H](CCCCN)C(=O)N[C@H](C(=O)N[C@@H](CC(C)C)C(=O)N[C@H](C(=O)N[C@H](C(=O)NCC(=O)N[C@@H](CC(C)C)C(=O)N1CCC[C@H]1C(=O)N[C@@H](C)C(=O)N[C@@H](CC(C)C)C(=O)N[C@H](C(=O)N[C@@H](CO)C(=O)N[C@@H](Cc1c[nH]c2ccccc12)C(=O)N[C@H](C(=O)N[C@@H](CCCCN)C(=O)N[C@@H](CCCNC(=N)N)C(=O)N[C@@H](CCCCN)C(=O)N[C@@H](CCCNC(=N)N)C(=O)N[C@@H](CCC(N)=O)C(=O)N[C@@H](CCC(N)=O)C(N)=O)[C@@H](C)CC)[C@@H](C)CC)[C@@H](C)O)[C@@H](C)O)C(C)C)C(C)C` [melittin], the “EC50, entry of pseudotyped virus” value [7] was 13.2 µg/mL, the NT50 ([7]; agent incubated with pseudotyped virus 1 h, then HEK293T-hACE2 cells) was 12.5 µg/mL and the viability (in vitro [8]) was 51.7%. For the same compound, the NT50 (VSV-g-pseudotyped virus) was 5.51 µg/mL, the “mean number of intact virus particles per field” value [9] was 1.3 and the NT50 [10] was 11.6 µg/mL.

With `CCC(CC)COC(=O)[C@H](C)N[P@](=O)(OC[C@H]1O[C@@](C#N)(c2ccc3c(N)ncnn23)[C@H](O)[C@@H]1O)Oc1ccccc1` [Remdesivir, remdesivir, reference compound] the CC50 (in vitro [1]) was > 100 µM and the “inhibition of SARS-CoV-2 replication” value [5] was 98%.

In the case of `CC[C@@H](C)[C@@H](NC(=O)[C@@H](CCCCN)NC(=O)[C@@H](CC(C)C)NC(=O)[C@H](N)C(C)C)C(=O)N[C@H](CCCCN)C(=O)N[C@@H](C(=O)N[C@H](CCCCN)C(=O)N[C@@H](C(=O)N[C@H](Cc1c[nH]c2ccccc12)C(=O)N[C@@H](C(=O)N[C@@H](C(=O)N[C@H](CCCCN)C(N)=O)C(C)C)C(C)C)[C@H](C)CC)C(C)C` [D-3007, vlkikvkiwvvk-NH2] (H-[dV][dL][dK][dI][dK][dV][dK][dI][dW][dV][dV][dK]-NH2), the CC50 (in vitro [1]) is reported as 708 µg/mL, the “EC50 VeroE6/TMPRSS2” value [2] is reported as 30.53 µg/mL (≈ 21 µM) and the “EC50 Vero” value [3] is reported as 23.86 µg/mL (≈ 16.4 µM).
